The record followed here is US20240318142A1, “METHOD FOR PRODUCING RENAL INTERSTITIAL PROGENITOR CELLS, ERYTHROPOIETIN-PRODUCING CELLS, AND METHOD FOR PRODUCING RENIN-PRODUCING CELLS” (KYOTO UNIVERSITY, priority 2021, published 2024).

Experiment [1] deals with hiPSC-derived IPCs. The experiment is described as follows: qRT-PCR of EPO after further differentiation induction from IPCs (renal EPO-producing cells). The class given is cell-based, human. The conditions noted are these: combination of SB431542 and SAG (500 nM); 5% O2, FG-4592 and RA present; FIG. 9. As to the method: (§1) FIG. 9 is a diagram illustrating results of qRT-PCR analysis of EPO and renin carried out on Days 11 to 14, that is, after obtaining renal interstitial progenitor cells, for comparison of the effects of combinations of candidate differentiation induction factors for renal EPO-producing cells or renin-producing cells. The SAG concentration was 500 nM, and the concentrations of SB and CHIR are expressed in the unit of μM.
(§2) FIG. 10 is a diagram illustrating results of qRT-PCR analysis of EPO and renin on Days 11 to 14, that is, after obtaining renal interstitial progenitor cells, for comparison of the effects of combinations of various candidate differentiation induction factors. The SAG concentration was 500 nM; the concentrations of SB and A83 are expressed in the unit of μM; LDN is expressed in the unit of nM; and TGFβ1, BMP7, and activin (ACT) are expressed in the unit of ng/mL.
FIG. 15 is a diagram illustrating results of qRT-PCR analysis of EPO carried out on Days 11 to 14, that is, after obtaining renal interstitial progenitor cells, for comparison of the effects of various Sonic Hedgehog (SHH) signal modulators under induction conditions using CHIR99021, RA, and A83-01. So, Vi, Pu, Sa, and Ga represent sonidegib, vismodegib, purmophamine, SANT-1, and GANT61, respectively, and their concentrations are expressed in the unit of μM. The concentration of SAG was 500 nM, and the concentration of SHH was 100 ng/mL.
(§3) First, using the IPCs on Day 11, culture was performed under 5% O2 hypoxic conditions in the presence of FG-4592 (N-[(4-hydroxy-1-methyl-7-phenoxy-3-isoquinolinyl)carbonyl]-glycine) and RA with addition of various factors. By measuring the expression of EPO and renin, screening for induction factors for renin-producing cells and renal EPO-producing cells was carried out.
Subsequently, the effects of various SHH signal modulators in a system for differentiation induction from IPCs to EPO-producing cells were investigated (FIG. 15). Several SMO antagonists (sonidegib, vismodegib, and SANT-1) and agonists (SAG and purmophamine), a GLI1 inhibitor (GANT61), and human SHH protein were tested.
On the technique in general: Quantitative PCR measures a nucleic acid by following its amplification.

For experiment [2], the system named is hiPSC-derived IPCs. The experiment is described as follows: qRT-PCR of renin and mesangial/JG cell markers after further differentiation induction from IPCs (renin-producing cells). The class given is cell-based, human. As to conditions: combination of CHIR99021 and SB431542, absence of SAG; 5% O2, FG-4592 and RA present; FIG. 9. The protocol:
as §1, §2
FIG. 11 is a diagram illustrating results of qRT-PCR analysis of renin on Days 11 to 14, that is, after obtaining renal interstitial progenitor cells, for comparison of the effects of various factors. In the presence of CHIR99021, RA, and FG-4592 (CFR), the effects of BMP4, BMP5, and BMP7 (10 ng/mL or 100 ng/mL) were investigated under conditions with or without treatment by SB431542 (1 μM). SB is expressed in the unit of […], and TGFβ1 and ACT are expressed in the unit of ng/mL.
FIG. 12 is a diagram illustrating results of qRT-PCR analysis of marker expression for the mesangial cell lineage (GATA3, renin, and GJA5) and IPCs (FOXD1) at Hour 0 and Hour 96 after treatment with CFR+BMP7+SB. iPSC represents the control.
FIG. 13 is a diagram illustrating results of qRT-PCR analysis of cells that were subjected to treatment under hypoxic (CFR+B7+SB in 5% O2) or normal oxygen (CFR+B7+SB minus FG-4592 in 20% O2) conditions on Days 11 to 15, that is, after obtaining renal interstitial progenitor cells, which analysis was carried out for markers for JG (renin and GJA4) and mesangial cells (EBF1, GJA5, ITGA8, and GATA3). * indicates p<0.05; ** indicates p<0.01; and NS indicates “no significant difference” (Student's t-test).
FIG. 14 is a diagram illustrating results of qRT-PCR analysis of cells that were subjected to treatment with VEGF (100 ng/mL) or axitinib (3 μM) and also to treatment under hypoxic conditions (CFR+B7+SB in 5% O2) or normal conditions (CFR+B7+SB minus FG-4592 in 20% O2) on Days 11 to 15, that is, after obtaining renal interstitial progenitor cells, which analysis was carried out for markers for JG (renin and GJA4), mesangial cells (EBF1, GJA5, ITGA8, and GATA3), and VEGFA.
as §3

Turning to `NC(=O)c1ccc(-c2nc(-c3ccc4c(c3)OCO4)c(-c3ccccn3)[nH]2)cc1` [SB431542], the “expression of EPO” value in the experiment with hiPSC-derived IPCs [1] is recorded as “increase the expression of EPO”. In the experiment with hiPSC-derived IPCs [2], the expression of renin entry was “increase the expression of renin”.
